Measured values taken from patent US12281079B2, “Quinoline derivatives, processes for their preparation and uses thereof for the treatment of cancer” (Lead Discovery Center GmbH, priority 2019, dated 2025).

The compounds below were run against mitochondrial RNA polymerase (POLRMT) (Mus musculus, UniProt Q8BKF1) (assay: Homogeneous TR-FRET assay for mitochondrial transcription activity). Conditions: homogeneous TR-FRET assay according to Example 4.
Assay type: biochemical
Description: The TR-FRET assay was basically conducted as described in WO2016/193231A1, especially as described in example 1 (hereby incorporated by reference). With respect to the back ground of the mitochondrial transcription it is referred to Falkenberg et al. (2002) and Posse et al. (Posse et al., 2015). The method monitors the activity of mitochondrial RNA-polymerase via detection of the formation of its product, a 407 bp long RNA sequence. Detection of the product is facilitated by hybridization of two DNA-oligonucleotide probes to specific and adjacent sequences within the RNA product sequence. Upon annealing of the probes, two fluorophores that are coupled directly to an acceptor nucleotide probe (ATT0647, 5′) or introduced via a coupled streptavidin interacting with a biotinylated donor nucleotide probe on the other side (Europium cryptate, 3′) are brought into sufficient proximity to serve as a fluorescence-donor-acceptor pair as generally described in Walters and Namchuk (2003). Thus, a FRET signal at 665 nm is generated upon excitation at 340 nm.
Briefly, the protocol described here was applied for screening and activity determination in a low-volume 384-well microtiter plate with non-binding surface. For high-throughput application in the 1536-well microtiter plate format, volumes of the reagent mixes were adjusted, maintaining the volumetric ratio. Proteins POLRMT (NM_172551.3), TFAM (NM_009360.4) and TFB2M (NM_008249.4) were diluted from their stocks to working concentrations of 150 nM, 1.8 μM and 330 nM respectively, in a dilution buffer containing 100 mM Tris-HCl pH 8.0, 200 mM NaCl, 10% (v/v) glycerole, 2 mM glutathione (GSH), 0.5 mM EDTA and 0.1 mg/mL BSA. Protein dilutions and template DNA, comprising a pUC18 plasmid encoding the mitochondrial light strand promoter, restriction linearized proximal to the promoter 3′-end (pUC-LSP), were mixed at the twofold final assay-concentration in a reaction buffer, containing 10 mM Tris-HCl pH 7.5, 10 mM MgCl2, 40 mM NaCl, 2 mM GSH, 0.01% (w/v) Tween-20 and 0.1 mg/mL BSA.
5 μL of this mix were dispensed, depending on the chosen microtiter plate format, using multi-channel pipettes or a Multidrop® dispenser (Thermo Fisher Scientific, Waltham Mass.) into the wells of a microtiter plate and incubated at room temperature (rt) for 10 min. Chemical compounds under scrutiny in the assay were applied using contact-free acoustic droplet-dispensing (Echo520® Labcyte Inc., Sunnyvale Calif.) from 10 mM compound stocks in 100% DMSO, to a final concentration of 10 μM or in serial dilution series of the required concentration range. Equal amounts of DMSO without any compound were added to positive control samples, followed by an incubation step at rt for 10 min.
The enzymatic reaction was started by the addition of 5 μL of a mix of dNTPs in reaction buffer to a final concentration of 500 μM each. No nucleotide mix was added to negative control samples. The content of the wells was mixed using a VarioTeleshaker™ (Thermo Fisher Scientific, Waltham Mass.) at 1500 rpm for 45 sec after which the microtiter plate was centrifuged at 500×g for 1 min. The samples were incubated for 2 h at rt with humidity control to avoid evaporation. The detection reagents were prepared in a buffer that was composed, such that the enzymatic reaction was terminated due to chelating of Mg-ions and increased ionic strength, containing 50 mM Tris-HCl pH 7.5, 700 mM NaCl, 20 mM EDTA, and 0.01% (w/v) Tween-20. Importantly Eu-cryptate-coupled streptavidin had to be preincubated with a 100-fold molar excess of a random sequence oligonucleotide for 10 min at rt in the dark to block unspecific binding of single stranded RNA to the protein. Subsequently, the blocked streptavidin(-Eu) was mixed with the DNA-probes on ice and kept away from light until use. […]

Sequence of mitochondrial RNA polymerase (POLRMT) (Q8BKF1 42-1207): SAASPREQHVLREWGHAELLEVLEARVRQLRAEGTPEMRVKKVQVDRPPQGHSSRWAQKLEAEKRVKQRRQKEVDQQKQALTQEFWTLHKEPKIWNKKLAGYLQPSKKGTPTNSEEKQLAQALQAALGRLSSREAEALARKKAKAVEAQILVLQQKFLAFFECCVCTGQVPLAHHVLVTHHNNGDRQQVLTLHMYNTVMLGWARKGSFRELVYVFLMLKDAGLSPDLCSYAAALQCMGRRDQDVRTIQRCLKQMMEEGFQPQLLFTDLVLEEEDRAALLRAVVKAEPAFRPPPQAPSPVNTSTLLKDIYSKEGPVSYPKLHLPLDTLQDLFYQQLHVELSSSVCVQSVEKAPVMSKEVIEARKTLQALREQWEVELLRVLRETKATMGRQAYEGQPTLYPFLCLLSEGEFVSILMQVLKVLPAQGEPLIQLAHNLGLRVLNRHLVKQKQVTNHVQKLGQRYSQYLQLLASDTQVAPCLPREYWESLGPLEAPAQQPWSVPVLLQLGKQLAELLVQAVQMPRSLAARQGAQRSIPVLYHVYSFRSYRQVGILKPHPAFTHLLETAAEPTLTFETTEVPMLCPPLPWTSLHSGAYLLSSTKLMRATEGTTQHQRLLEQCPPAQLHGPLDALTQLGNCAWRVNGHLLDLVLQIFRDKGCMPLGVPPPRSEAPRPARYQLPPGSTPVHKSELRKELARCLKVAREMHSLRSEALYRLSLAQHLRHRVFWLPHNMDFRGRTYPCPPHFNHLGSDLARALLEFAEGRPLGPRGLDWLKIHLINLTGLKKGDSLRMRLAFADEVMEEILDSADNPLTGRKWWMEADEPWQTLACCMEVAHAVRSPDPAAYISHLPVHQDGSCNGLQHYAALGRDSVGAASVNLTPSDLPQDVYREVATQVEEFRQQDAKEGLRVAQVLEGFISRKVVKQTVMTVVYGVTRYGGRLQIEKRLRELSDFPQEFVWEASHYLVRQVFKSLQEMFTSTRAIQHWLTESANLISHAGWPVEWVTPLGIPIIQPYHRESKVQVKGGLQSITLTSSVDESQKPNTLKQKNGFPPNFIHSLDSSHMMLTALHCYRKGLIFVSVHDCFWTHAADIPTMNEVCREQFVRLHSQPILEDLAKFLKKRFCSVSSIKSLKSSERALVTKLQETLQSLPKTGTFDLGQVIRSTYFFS

IC50 | Structure (SMILES)
1 to 10 µM | COc1ccccc1-c1ccnc2cc(O[C@H](C)C(=O)N3CCC[C@H](CC(=O)O)C3)ccc12 [Compound 135, 2-[(3R)-1-[(2R)-2-[[4-(2-methoxyphenyl)-7-quinolyl]oxy]propanoyl]-3-piperidyl]acetic acid]
1 to 10 µM | C[C@@H](Oc1ccc2c(-c3ccccc3OC(F)(F)F)ccnc2c1)C(=O)N1CCC[C@H](CC(=O)O)C1 [Compound 137, 2-[(3R)-1-[(2R)-2-[[4-[2-(trifluoromethoxy)phenyl]-7-quinolyl]oxy]propanoyl]-3-piperidyl]acetic acid]
< 0.02 µM | CCOC(=O)C[C@H]1CCCN(C(=O)[C@@H](C)Oc2ccc3c(-c4c(C)cccc4C)ccnc3c2)C1 [Compound 6, ethyl 2-[(3R)-1-[(2R)-2-[[4-(2,6-dimethylphenyl)-7-quinolyl]oxy]propanoyl]-3-piperidyl]acetate]
1 to 10 µM | Cc1ccccc1-c1ccnc2cc(OCC(N)=O)ccc12 [Compound 106, 2-((4-(o-tolyl)quinolin-7-yl)oxy)acetamide]
< 0.02 µM | Cc1cccc(C)c1-c1ccnc2cc(O[C@H](C)C(=O)N3CCCC(CS(N)(=O)=O)C3)ccc12 (mixture of isomers) [Compound 190, [1-[rac-(2R)-2-[[4-(2,6-dimethylphenyl)-7-quinolyl]oxy]propanoyl]-3-piperidyl]methanesulfonamide]
0.02 to 0.1 µM | CCC(Oc1ccc2c(-c3ccccc3Cl)ccnc2c1)C(=O)N1CCC[C@H](CC(=O)O)C1 (mixture of isomers) [Compound 140, 2-[rac-(3R)-1-[2-[[4-(2-chlorophenyl)-7-quinolyl]oxy]butanoyl]-3-piperidyl]acetic acid]
1 to 10 µM | CCOC(=O)[C@H]1CCCN(C(=O)COc2ccc3c(-c4ccccc4Cl)ccnc3c2)C1 [Compound 87, ethyl (3S)-1-[2-[[4-(2-chlorophenyl)-7-quinolyl]oxy]acetyl]piperidine-3-carboxylate]
0.1 to 1 µM | C[C@@H](Oc1ccc2c(-c3ccccc3N(C)C)ccnc2c1)C(=O)N1CCC[C@H](CC(=O)O)C1 [Compound 145, 2-[(3R)-1-[(2R)-2-[[4-[2-(dimethylamino)phenyl]-7-quinolyl]oxy]propanoyl]-3-piperidyl]acetic acid]
1 to 10 µM | CCOC(=O)c1cccc(NC(=O)[C@@H](C)Oc2ccc3c(-c4ccc(F)cc4Cl)ccnc3c2)c1 [Compound 108, ethyl 3-[[(2 R)-2-[[4-(2-chloro-4-fluoro-phenyl)-7-quinolyl]oxy]propanoyl]amino]benzoate]
1 to 10 µM | CCOC(=O)C[C@H]1CCCN(C(=O)[C@@H](C)Oc2ccc3c(-c4ccccc4Cl)cc(Cl)nc3c2)C1 [Compound 92, ethyl 2-[(3R)-1-[(2R)-2-[[2-chloro-4-(2-chlorophenyl)-7-quinolyl]oxy]propanoyl]-3-piperidyl]acetate]
0.1 to 1 µM | C[C@@H](Oc1ccc2c(-c3ccc(F)cc3Cl)ccnc2c1)C(=O)O [Compound 44, (R)-2-((4-(2-chloro-4-fluorophenyl)quinolin-7 yl)oxy)propanoic acid]
1 to 10 µM | C[C@@H](Oc1ccc2c(-c3ccccc3Cl)cc(Cl)nc2c1)C(=O)N1CCC[C@H](C(=O)N(C)C)C1 [Compound 100, (3S)-1-[(2R)-2-[[2-chloro-4-(2-chlorophenyl)-7-quinolyl]oxy]propanoyl]-N,N-dimethyl-piperidine-3-carboxamide]
1 to 10 µM | C[C@@H](Oc1ccc2c(-c3c(C(F)(F)F)cccc3C(F)(F)F)ccnc2c1)C(=O)N1CCC[C@H](CC(=O)O)C1 [Compound 151, 2-[(3R)-1-[(2R)-2-[[4-[2,6-bis(trifluoromethyl)phenyl]-7-quinolyl]oxy]propanoyl]-3-piperidyl]acetic acid]
1 to 10 µM | C[C@@H](Oc1ccc2c(-c3ccc(F)cc3Cl)cc(Cl)nc2c1)C(=O)O [Compound 91, (2R)-2-[[2-chloro-4-(2-chloro-4-fluoro-phenyl)-7-quinolyl]oxy]propanoic acid]
